Values of other authors, collected in patent publication US7132450B2, “Hepatic disorder suppressant” (Kagome Co., Ltd., priority 2000, dated 2006).

Tests used:
NO and O2^− generation = details: reported in literature
[1] = reported in literature

SMILES	inhibitory effect on NO and O2^− generation (NO and O2^− generation)	growth suppressing effect [1]
CCCCC/C=C\C/C=C\CCCCC/C=C/C(=O)CC(O)COC(C)=O (stereo not drawn) [Compound 4]	has inhibitory effect on NO and O2^− generation	
CCCCC/C=C\C/C=C\CCCCCCCC(=O)CC(O)COC(C)=O (stereo not drawn) [Compound 5, persin]	inhibitory effect on NO and O2^− generation	various growth suppressing effect
